# From ChEMBL document CHEMBL1155237, “Selective inhibitors of the mutant B-Raf pathway: discovery of a potent and orally bioavailable aminoisoquinoline” (J Med Chem, 2009)
# Assays:
# Parameters in all cases: scale not given: the % may be the effect or the level left
# [1] = molecular target: Fibroblast growth factor receptor 4 (Homo sapiens) (UniProt P22455); experiment: Inhibition of FGFR4 assessed as enzyme activity at 1 uM relative to untreated control
# [2] = Inhibition of FLT3 ITD assessed as enzyme activity at 1 uM relative to untreated control
# [3] = molecular target: Activin receptor type-2B (Homo sapiens) (UniProt Q13705); experiment: Inhibition of ACVR2B assessed as enzyme activity at 1 uM relative to untreated control
# [4] = molecular target: Aurora kinase B (Homo sapiens) (UniProt Q96GD4); experiment: Inhibition of AURKB assessed as enzyme activity at 1 uM relative to untreated control
# Sequence of Aurora kinase B (Homo sapiens) (Q96GD4 whole entry, canonical isoform): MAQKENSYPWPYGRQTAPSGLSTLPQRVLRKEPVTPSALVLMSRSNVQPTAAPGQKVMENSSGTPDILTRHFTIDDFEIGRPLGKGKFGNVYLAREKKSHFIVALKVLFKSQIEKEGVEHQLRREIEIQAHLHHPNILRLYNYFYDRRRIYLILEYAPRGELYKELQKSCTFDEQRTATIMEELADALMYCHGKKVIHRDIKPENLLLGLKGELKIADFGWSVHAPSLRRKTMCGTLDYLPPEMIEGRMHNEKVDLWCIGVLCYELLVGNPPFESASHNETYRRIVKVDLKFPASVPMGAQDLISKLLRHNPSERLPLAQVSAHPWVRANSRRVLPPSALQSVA
# [5] = molecular target: Casein kinase I isoform epsilon (Homo sapiens) (UniProt P49674); experiment: Inhibition of CSNK1E assessed as enzyme activity at 1 uM relative to untreated control
# [6] = molecular target: Ribosomal protein S6 kinase alpha-5 (Homo sapiens) (UniProt O75582); experiment: Inhibition of RPS6KA5 kinase domain 2 assessed as enzyme activity at 1 uM relative to untreated control
# [7] = molecular target: Mitogen-activated protein kinase kinase kinase 10 (Homo sapiens) (UniProt Q02779); experiment: Inhibition of MLK2 assessed as enzyme activity at 1 uM relative to untreated control
# [8] = molecular target: Insulin receptor (Homo sapiens) (UniProt P06213); experiment: Inhibition of INSR assessed as enzyme activity at 1 uM relative to untreated control
# [9] = molecular target: Mitogen-activated protein kinase 8 (Homo sapiens) (UniProt P45983); experiment: Inhibition of JNK1 assessed as enzyme activity at 1 uM relative to untreated control
# [10] = molecular target: Tyrosine-protein kinase receptor Tie-1 (Homo sapiens) (UniProt P35590); experiment: Inhibition of TIE1 assessed as enzyme activity at 1 uM relative to untreated control
# [11] = molecular target: Serine/threonine-protein kinase MARK1 (Homo sapiens) (UniProt Q9P0L2); experiment: Inhibition of MARK1 assessed as enzyme activity at 1 uM relative to untreated control
# Sequence of Serine/threonine-protein kinase MARK1 (Homo sapiens) (Q9P0L2 whole entry, looked up, the tested form may be a part): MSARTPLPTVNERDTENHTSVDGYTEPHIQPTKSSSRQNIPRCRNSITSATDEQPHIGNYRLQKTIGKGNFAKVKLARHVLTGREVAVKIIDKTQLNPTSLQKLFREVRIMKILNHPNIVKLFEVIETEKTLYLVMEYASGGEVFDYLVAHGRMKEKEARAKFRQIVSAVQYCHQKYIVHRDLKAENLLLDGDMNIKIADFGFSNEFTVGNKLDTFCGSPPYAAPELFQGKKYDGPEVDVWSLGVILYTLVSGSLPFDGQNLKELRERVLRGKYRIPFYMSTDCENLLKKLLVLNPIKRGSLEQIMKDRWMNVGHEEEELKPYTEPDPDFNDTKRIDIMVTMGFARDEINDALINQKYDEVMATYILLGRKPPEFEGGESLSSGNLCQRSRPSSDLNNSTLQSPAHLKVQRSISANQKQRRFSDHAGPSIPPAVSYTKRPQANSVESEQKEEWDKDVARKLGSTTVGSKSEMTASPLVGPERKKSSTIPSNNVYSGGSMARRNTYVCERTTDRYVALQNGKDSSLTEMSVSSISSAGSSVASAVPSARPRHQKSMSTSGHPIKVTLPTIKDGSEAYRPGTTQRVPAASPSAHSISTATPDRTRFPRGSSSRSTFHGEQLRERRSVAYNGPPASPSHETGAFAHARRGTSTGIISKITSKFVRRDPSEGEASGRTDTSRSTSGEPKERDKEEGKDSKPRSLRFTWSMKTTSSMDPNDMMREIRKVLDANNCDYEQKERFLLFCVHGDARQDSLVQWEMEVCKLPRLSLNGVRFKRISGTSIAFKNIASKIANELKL
# [12] = molecular target: Ribosomal protein S6 kinase alpha-6 (Homo sapiens) (UniProt Q9UK32); experiment: Inhibition of RPS6KA6 kinase domain 2 assessed as enzyme activity at 1 uM relative to untreated control
# Sequence of Ribosomal protein S6 kinase alpha-6 (Homo sapiens) (Q9UK32 whole entry, the tested form may be a part): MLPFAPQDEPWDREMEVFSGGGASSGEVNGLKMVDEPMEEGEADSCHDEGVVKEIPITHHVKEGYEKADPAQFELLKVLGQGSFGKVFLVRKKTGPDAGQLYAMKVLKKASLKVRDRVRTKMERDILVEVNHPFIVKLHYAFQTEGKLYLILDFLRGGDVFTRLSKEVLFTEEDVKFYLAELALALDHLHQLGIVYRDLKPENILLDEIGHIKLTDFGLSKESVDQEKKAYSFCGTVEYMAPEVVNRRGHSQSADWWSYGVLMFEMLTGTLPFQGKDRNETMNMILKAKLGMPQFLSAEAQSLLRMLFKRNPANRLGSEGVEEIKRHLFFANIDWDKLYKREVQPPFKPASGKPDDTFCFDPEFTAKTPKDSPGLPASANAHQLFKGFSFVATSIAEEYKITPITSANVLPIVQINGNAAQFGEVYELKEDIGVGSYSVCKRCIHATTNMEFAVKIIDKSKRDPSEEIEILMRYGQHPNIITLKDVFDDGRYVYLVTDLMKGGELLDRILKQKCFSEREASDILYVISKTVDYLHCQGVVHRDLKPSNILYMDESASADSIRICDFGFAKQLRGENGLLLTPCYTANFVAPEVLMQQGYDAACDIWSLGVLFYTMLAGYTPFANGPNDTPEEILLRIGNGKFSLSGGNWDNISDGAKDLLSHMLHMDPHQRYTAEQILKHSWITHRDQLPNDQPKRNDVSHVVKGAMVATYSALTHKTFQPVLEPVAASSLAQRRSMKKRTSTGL
# [13] = tested on: Proto-oncogene tyrosine-protein kinase receptor Ret (Homo sapiens), P07949 [M918T]; experiment: Inhibition of RET M918T mutant assessed as enzyme activity at 1 uM relative to untreated control
# [14] = tested on: Epidermal growth factor receptor (Homo sapiens), P00533 [UNDEFINED MUTATION]; experiment: Inhibition of EGFR L747-E749del A750P assessed as enzyme activity at 1 uM relative to untreated control; assay type: protein assay
# [15] = molecular target: Dual specificity testis-specific protein kinase 1 (Homo sapiens) (UniProt Q15569); experiment: Inhibition of TESK1 assessed as enzyme activity at 1 uM relative to untreated control
# [16] = molecular target: Ribosomal protein S6 kinase alpha-6 (Homo sapiens) (UniProt Q9UK32); experiment: Inhibition of RPS6KA6 kinase domain 1 assessed as enzyme activity at 1 uM relative to untreated control
# [17] = tested on: Tyrosine-protein kinase ABL1 (Homo sapiens), P00519 [Q252H]; experiment: Inhibition of ABL1 Q252H mutant assessed as enzyme activity at 1 uM relative to untreated control
# [18] = molecular target: Dual specificity mitogen-activated protein kinase kinase 3 (Homo sapiens) (UniProt P46734); experiment: Inhibition of MEK3 assessed as enzyme activity at 1 uM relative to untreated control
# Sequence of Dual specificity mitogen-activated protein kinase kinase 3 (Homo sapiens) (P46734 whole entry): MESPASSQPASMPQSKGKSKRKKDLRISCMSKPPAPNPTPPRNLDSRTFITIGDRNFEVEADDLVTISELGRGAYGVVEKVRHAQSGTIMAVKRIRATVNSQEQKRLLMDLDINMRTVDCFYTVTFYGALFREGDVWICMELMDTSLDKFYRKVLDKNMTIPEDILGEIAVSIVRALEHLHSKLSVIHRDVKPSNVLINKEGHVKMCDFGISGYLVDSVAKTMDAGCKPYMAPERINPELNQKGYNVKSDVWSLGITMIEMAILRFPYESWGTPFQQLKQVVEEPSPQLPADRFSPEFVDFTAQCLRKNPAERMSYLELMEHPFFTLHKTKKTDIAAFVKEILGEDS
# [19] = molecular target: Cyclin-dependent kinase 16 (Homo sapiens) (UniProt Q00536); experiment: Inhibition of PCTK1 assessed as enzyme activity at 1 uM relative to untreated control
# Sequence of Cyclin-dependent kinase 16 (Homo sapiens) (Q00536 whole entry, canonical isoform): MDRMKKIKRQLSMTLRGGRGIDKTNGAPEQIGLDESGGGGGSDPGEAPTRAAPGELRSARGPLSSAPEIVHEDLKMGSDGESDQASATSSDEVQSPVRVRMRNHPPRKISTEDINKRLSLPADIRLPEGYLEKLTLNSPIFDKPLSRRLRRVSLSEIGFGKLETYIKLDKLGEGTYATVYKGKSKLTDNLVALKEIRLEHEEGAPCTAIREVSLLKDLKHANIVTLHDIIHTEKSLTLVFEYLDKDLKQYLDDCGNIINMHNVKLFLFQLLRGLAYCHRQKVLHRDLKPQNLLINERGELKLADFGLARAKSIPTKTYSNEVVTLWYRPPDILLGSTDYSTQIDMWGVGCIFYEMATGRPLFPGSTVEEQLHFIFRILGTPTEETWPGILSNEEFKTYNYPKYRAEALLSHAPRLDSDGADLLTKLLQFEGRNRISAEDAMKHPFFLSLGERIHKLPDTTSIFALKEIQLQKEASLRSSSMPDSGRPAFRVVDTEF
# [20] = molecular target: Casein kinase I isoform alpha-like (Homo sapiens) (UniProt Q8N752); experiment: Inhibition of CSNK1A1L assessed as enzyme activity at 1 uM relative to untreated control
# [21] = molecular target: Serine/threonine-protein kinase Nek6 (Homo sapiens) (UniProt Q9HC98); experiment: Inhibition of NEK6 assessed as enzyme activity at 1 uM relative to untreated control
# [22] = molecular target: Tyrosine-protein kinase receptor TYRO3 (Homo sapiens) (UniProt Q06418); experiment: Inhibition of TYRO3 assessed as enzyme activity at 1 uM relative to untreated control
# [23] = tested on: Tyrosine-protein kinase ABL1 (Homo sapiens), P00519 [H396P]; experiment: Inhibition of ABL1 H396P mutant assessed as enzyme activity at 1 uM relative to untreated control
# [24] = molecular target: Macrophage-stimulating protein receptor (Homo sapiens) (UniProt Q04912); experiment: Inhibition of MST1R assessed as enzyme activity at 1 uM relative to untreated control
# Sequence of Macrophage-stimulating protein receptor (Homo sapiens) (Q04912 25-304 limits assumed): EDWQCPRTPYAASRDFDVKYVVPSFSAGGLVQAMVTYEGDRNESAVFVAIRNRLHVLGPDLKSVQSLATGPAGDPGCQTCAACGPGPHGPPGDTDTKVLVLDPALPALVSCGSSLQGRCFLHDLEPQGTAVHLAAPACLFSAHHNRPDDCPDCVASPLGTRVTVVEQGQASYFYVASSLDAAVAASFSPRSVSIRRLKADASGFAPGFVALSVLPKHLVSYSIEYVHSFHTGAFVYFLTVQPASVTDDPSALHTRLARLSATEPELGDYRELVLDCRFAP
# Sequence of Macrophage-stimulating protein receptor (Homo sapiens) (Q04912 310-1400 limits assumed): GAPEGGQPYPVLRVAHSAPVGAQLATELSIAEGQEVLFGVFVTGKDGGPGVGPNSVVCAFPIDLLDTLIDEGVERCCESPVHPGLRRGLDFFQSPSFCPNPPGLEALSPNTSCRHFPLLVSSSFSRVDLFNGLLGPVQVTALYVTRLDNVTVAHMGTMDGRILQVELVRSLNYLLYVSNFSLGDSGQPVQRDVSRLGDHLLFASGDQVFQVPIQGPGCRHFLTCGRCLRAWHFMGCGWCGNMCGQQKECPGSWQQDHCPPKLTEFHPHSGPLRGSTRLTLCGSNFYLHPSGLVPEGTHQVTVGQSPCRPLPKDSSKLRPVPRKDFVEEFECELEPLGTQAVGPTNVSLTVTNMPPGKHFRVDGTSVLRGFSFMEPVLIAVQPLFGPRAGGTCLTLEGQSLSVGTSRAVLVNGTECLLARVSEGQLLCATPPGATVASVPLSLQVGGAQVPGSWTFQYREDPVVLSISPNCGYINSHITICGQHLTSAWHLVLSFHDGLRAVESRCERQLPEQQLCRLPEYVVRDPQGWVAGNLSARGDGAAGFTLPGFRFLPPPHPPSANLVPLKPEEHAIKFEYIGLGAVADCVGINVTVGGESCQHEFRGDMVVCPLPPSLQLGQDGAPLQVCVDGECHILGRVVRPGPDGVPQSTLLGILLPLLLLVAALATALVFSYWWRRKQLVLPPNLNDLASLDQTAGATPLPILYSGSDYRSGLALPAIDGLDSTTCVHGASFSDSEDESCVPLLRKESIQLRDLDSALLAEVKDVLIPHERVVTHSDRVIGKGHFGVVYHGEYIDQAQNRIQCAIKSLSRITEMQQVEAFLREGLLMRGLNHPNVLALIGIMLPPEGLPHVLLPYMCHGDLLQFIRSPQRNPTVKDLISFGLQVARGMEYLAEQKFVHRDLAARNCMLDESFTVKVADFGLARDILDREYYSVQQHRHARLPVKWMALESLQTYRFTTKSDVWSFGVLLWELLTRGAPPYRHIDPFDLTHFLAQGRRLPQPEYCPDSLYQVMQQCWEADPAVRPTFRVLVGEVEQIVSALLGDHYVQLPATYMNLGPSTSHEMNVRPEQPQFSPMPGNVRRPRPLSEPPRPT
# [25] = molecular target: Homeodomain-interacting protein kinase 1 (Homo sapiens) (UniProt Q86Z02); experiment: Inhibition of HIPK1 assessed as enzyme activity at 1 uM relative to untreated control
# [26] = molecular target: Serine/threonine-protein kinase RIO2 (Homo sapiens) (UniProt Q9BVS4); experiment: Inhibition of RIOK2 assessed as enzyme activity at 1 uM relative to untreated control
# [27] = molecular target: Ephrin type-A receptor 1 (Homo sapiens) (UniProt P21709); experiment: Inhibition of EPHA1 assessed as enzyme activity at 1 uM relative to untreated control
# [28] = tested on: Epidermal growth factor receptor (Homo sapiens), P00533 [L858R]; experiment: Inhibition of EGFR L858R mutant assessed as enzyme activity at 1 uM relative to untreated control; assay type: protein assay
# [29] = molecular target: Glycogen synthase kinase-3 alpha (Homo sapiens) (UniProt P49840); experiment: Inhibition of GSK3A assessed as enzyme activity at 1 uM relative to untreated control
# [30] = molecular target: Mitogen-activated protein kinase 13 (Homo sapiens) (UniProt O15264); experiment: Inhibition of p38delta assessed as enzyme activity at 1 uM relative to untreated control
# [31] = molecular target: Aurora kinase A (Homo sapiens) (UniProt O14965); experiment: Inhibition of AURKA assessed as enzyme activity at 1 uM relative to untreated control
# [32] = molecular target: ALK tyrosine kinase receptor (Homo sapiens) (UniProt Q9UM73); experiment: Inhibition of ALK assessed as enzyme activity at 1 uM relative to untreated control
# [33] = molecular target: Uncharacterized serine/threonine-protein kinase SBK3 (Homo sapiens) (UniProt P0C264); experiment: Inhibition of SgK110 assessed as enzyme activity at 1 uM relative to untreated control
# [34] = molecular target: Casein kinase I isoform gamma-2 (Homo sapiens) (UniProt P78368); experiment: Inhibition of CSNK1G2 assessed as enzyme activity at 1 uM relative to untreated control
# [35] = molecular target: MAP kinase-activated protein kinase 5 (Homo sapiens) (UniProt Q8IW41); experiment: Inhibition of MAPKAPK5 assessed as enzyme activity at 1 uM relative to untreated control
# [36] = molecular target: Serine/threonine-protein kinase 24 (Homo sapiens) (UniProt Q9Y6E0); experiment: Inhibition of MST3 assessed as enzyme activity at 1 uM relative to untreated control
# [37] = molecular target: Serine/threonine-protein kinase Nek2 (Homo sapiens) (UniProt P51955); experiment: Inhibition of NEK2 assessed as enzyme activity at 1 uM relative to untreated control
# [38] = molecular target: Calcium/calmodulin-dependent protein kinase type IV (Homo sapiens) (UniProt Q16566); experiment: Inhibition of CAMK4 assessed as enzyme activity at 1 uM relative to untreated control
# Sequence of Fibroblast growth factor receptor 4 (Homo sapiens) (P22455 22-802 limits assumed): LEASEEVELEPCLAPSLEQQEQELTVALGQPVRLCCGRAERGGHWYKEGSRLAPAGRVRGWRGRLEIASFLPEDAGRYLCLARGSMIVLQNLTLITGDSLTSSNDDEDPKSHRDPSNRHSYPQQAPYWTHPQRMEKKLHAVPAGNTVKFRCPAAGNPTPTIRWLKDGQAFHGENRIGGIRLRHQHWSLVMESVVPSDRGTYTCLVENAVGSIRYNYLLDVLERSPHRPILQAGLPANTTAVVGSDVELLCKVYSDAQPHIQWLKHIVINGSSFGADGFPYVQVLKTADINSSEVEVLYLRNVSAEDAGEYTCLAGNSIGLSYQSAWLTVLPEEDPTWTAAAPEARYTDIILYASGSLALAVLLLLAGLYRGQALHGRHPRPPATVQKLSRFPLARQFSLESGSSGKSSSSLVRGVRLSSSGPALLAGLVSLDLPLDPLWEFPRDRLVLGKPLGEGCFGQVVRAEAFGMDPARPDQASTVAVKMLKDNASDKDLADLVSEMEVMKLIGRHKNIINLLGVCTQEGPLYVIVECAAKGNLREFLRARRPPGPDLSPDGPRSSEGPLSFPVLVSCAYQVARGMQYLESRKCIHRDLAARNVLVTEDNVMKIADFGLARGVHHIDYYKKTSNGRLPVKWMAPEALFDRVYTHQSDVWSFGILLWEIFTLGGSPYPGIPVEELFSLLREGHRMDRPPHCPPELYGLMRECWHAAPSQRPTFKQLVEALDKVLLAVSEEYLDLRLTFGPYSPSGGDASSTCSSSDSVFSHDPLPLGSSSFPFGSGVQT
structure (smiles),measurement,setting,value
Cc1ccc2c(Nc3ccc(Cl)cc3)nccc2c1Nc1ncccc1-c1ncnc2[nH]cnc12.Cl.Cl.Cl,Activity,[1],100%
same,Activity,[2],92%
same,Activity,[3],100%
same,Activity,[4],85%
same,Activity,[5],99%
same,Activity,[6],100%
same,Activity,[7],99%
same,Activity,[8],86%
same,Activity,[9],2.7%
same,Activity,[10],4.9%
same,Activity,[11],97%
same,Activity,[12],86%
same,Activity,[13],100%
same,Activity,[14],89%
same,Activity,[15],21%
same,Activity,[16],92%
same,Activity,[17],71%
same,Activity,[18],100%
same,Activity,[19],98%
same,Activity,[20],95%
same,Activity,[21],100%
same,Activity,[22],84%
same,Activity,[23],84%
same,Activity,[24],97%
same,Activity,[25],99%
same,Activity,[26],100%
same,Activity,[27],4.6%
same,Activity,[28],100%
same,Activity,[29],100%
same,Activity,[30],100%
same,Activity,[31],100%
same,Activity,[32],96%
same,Activity,[33],78%
same,Activity,[34],100%
same,Activity,[35],64%
same,Activity,[36],87%
same,Activity,[37],90%
same,Activity,[38],96%
